Experimental data: US20170349532A1, “CATIONIC LIPID” (Kyowa Hakko Kirin Co., Ltd., priority 2011, published 2017)

Experiment: Average particle diameter of preparation (Zetasizer Nano ZS)
Assay type: physicochemical
Settings: Comparative Examples 1 to 8, prepared as Example 118 with apo-b siRNA
Summary of the method: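 Lipid nanoparticles formed by mixing cationic lipid/PEG-DMPE Na/DSPC/cholesterol (8.947/1.059/5.708/13.697 mmol/L in 90% ethanol, 37 °C) with apo-b siRNA in Tris-EDTA/citrate buffer pH 5.0, then diluted with citrate/NaCl pH 6.0 and DPBS to 10 μM siRNA. Mean complex diameter measured by dynamic light scattering.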

Structure (SMILES)	average particle diameter of the complex between the cationic lipis and the nucleic acid in the preparation [nm]
CCCCC/C=C\C/C=C\CCCCCCCC(=O)OCCN(C)CCOC(=O)CCCCCCC/C=C\C/C=C\CCCCC [Compound A-5, N-Methyl-N,N-bis(2-((9Z,12Z)-1-oxooctadec-9,12-dienyloxy)ethyl)amine, reference compound]	136.4

Same assay, conditions: average particle diameter of cationic lipid/nucleic acid complex; Example 118 preparation: compound/PEG-DMPE Na/DSPC/cholesterol with apo-b siRNA

Structure (SMILES)	Particle diameter of Preparetion [nm]
CCCCC/C=C\C/C=C\CCCCCCCCCCOCCN(C)CCOCCCCCCCCCC/C=C\C/C=C\CCCCC [Compound 79, N,N-bis(2-((11Z,14Z)-Icos-11,14-dienyloxy)ethyl)-N-methylamine]	116.5
CCCC/C=C\CCCCCCCCOCCNCCOCCCCCCCC/C=C\CCCC [Compound 68, bis(2-((Z)-Tetradec-9-enyloxy)ethyl)amine]	132.4
CCCCCCCC/C=C\CCCCCCCC(=O)OCCN(CCOC(=O)CCCCCCC/C=C\CCCCCCCC)C(=O)[C@@H](N)CCCCN [Compound 97, (S)-2,6-Diamino-N,N-bis(2-((Z)-octadec-9-enoyloxy)ethyl)hexanamido]	133.0
CCCCC/C=C\C/C=C\CCCCCCCCO[C@H]1CNC[C@H]1OCCCCCCCC/C=C\C/C=C\CCCCC [Compound 3, (3R,4S)-3,4-bis((9Z,12Z)-Octadec-9,12-dienyloxy)pyrrolidine]	152.8
CCCCC/C=C\C/C=C\CCCCCCCCO[C@@H]1CN(CCC(=O)N(C)C)C[C@H]1OCCCCCCCC/C=C\C/C=C\CCCCC [Compound 58, 3-((3R,4R)-3,4-bis((9Z,12Z)-Octadec-9,12-dienyloxy)pyrrolidin-1-yl)-N,N-dimethylpropanamide]	151.8
CCCCC/C=C\C/C=C\CCCCCCCCO[C@@H]1CN(C2CCN(C)CC2)C[C@H]1OCCCCCCCC/C=C\C/C=C\CCCCC [Compound 60, 4-((3R,4R)-3,4-bis((9Z,12Z)-Octadec-9,12-dienyloxy)pyrrolidin-1-yl)-1-methylpiperidine]	125.3
CCCCC/C=C\C/C=C\CCCCCCCCOC[C@@H]1CNC[C@H]1COCCCCCCCC/C=C\C/C=C\CCCCC (relative stereo) [Compound 102, trans-3,4-bis(((9Z,12Z)-Octadec-9,12-dienyloxy)methyl)pyrrolidine]	133.0
CCCCCCCCCCCCCCCCO[C@@H]1CN(C)C[C@H]1OCCCCCCCCCCCCCCCC [Compound 45, (3R,4R)-3,4-bis(Hexadecyloxy)-1-methylpyrrolidine]	136.3
CCCCCCCCCCC/C=C\CCCCCO[C@@H]1CN(C)C[C@H]1OCCCCC/C=C\CCCCCCCCCCC [Compound 15, (3R,4R)-1-Methyl-3,4-bis((Z)-octadec-6-enyloxy)pyrrolidine]	139.1
CCCCCC/C=C\CCCCCCCCO[C@@H]1CN(C)C[C@H]1OCCCCCCCC/C=C\CCCCCC [Compound 14, (3R,4R)-3,4-bis((Z)-Hexadec-9-enyloxy)-1-methylpyrrolidine]	139.3
CCCCCC/C=C\CCCCCCCCCCO[C@@H]1CNC[C@H]1OCCCCCCCCCC/C=C\CCCCCC [Compound 41, (3R,4R)-3,4-bis((Z)-Octadec-11-enyloxy)pyrrolidine]	134.4
CCCCC/C=C\C/C=C\CCCCCCCC(=O)O[C@@H]1CN(CC(O)CO)C[C@H]1OC(=O)CCCCCCC/C=C\C/C=C\CCCCC (stereo partly drawn) [Compound 53, (3R,4R)-1-(2,3-dihydroxypropyl)pyrrolidine-3,4-diyl di((9Z,12Z)-octadec-9,12-enoate)]	152.4
CCCCCC/C=C\CCCCCCCCOCCNCCOCCCCCCCC/C=C\CCCCCC [Compound 72, bis(2-((Z)-Hexadec-9-enyloxy)ethyl)amine]	130.6
CCCCC/C=C\C/C=C\CCCCCCCCO[C@@H]1CN(CC(O)CO)C[C@H]1OCCCCCCCC/C=C\C/C=C\CCCCC (stereo partly drawn) [Compound 24, 3-((3R,4R)-3,4-bis((9Z,12Z)-Octadec-9,12-dienyloxy)pyrrolidin-1-yl) propane-1,2-diol]	160.7
CCCCCCCC/C=C\CCCCCCCC(=O)O[C@@H]1C[N+](C)(C)C[C@H]1OC(=O)CCCCCCC/C=C\CCCCCCCC.[Cl-] [Compound 23, (3R,4R)-1,1-Dimethyl-3,4-bis((Z)-octadec-9-enoyloxy)pyrrolidinium chloride]	108.7
CCCCCCCC/C=C\CCCCCCCCOC[C@@H]1C[N+](C)(C)C[C@H]1COCCCCCCCC/C=C\CCCCCCCC.[Cl-] (relative stereo) [Compound 111, trans-1,1-Dimethyl-3,4-bis(((Z)-octadec-9-enyloxy)methyl)pyrrolidinium chloride]	112.0
CCCCC/C=C\C/C=C\CCCCCCCC(=O)OCCN(CCOC(=O)CCCCCCC/C=C\C/C=C\CCCCC)C(=O)OCCCN(C)C [Compound 117, 3-(Dimethylamino)propyl bis(2-((9Z,12Z)-1-oxooctadec-9,12-dienyloxy)ethyl)carbamate]	155.9
CCCCCCCC/C=C\CCCCCCCCOCCNCCOCCCCCCCC/C=C\CCCCCCCC [Compound 67, bis(2-((Z)-Octadec-9-enyloxy)ethyl)amine]	127.6
CCCCC/C=C\C/C=C\CCCCCCCCO[C@@H]1CN(CCC(N)=O)C[C@H]1OCCCCCCCC/C=C\C/C=C\CCCCC [Compound 57, 3-((3R,4R)-3,4-bis((9Z,12Z)-Octadec-9,12-dienyloxy)pyrrolidin-1-yl)propanamide]	159.2
CCCCC/C=C\C/C=C\CCCCCCCCO[C@@H]1CN(C(=O)CN(C)C)C[C@H]1OCCCCCCCC/C=C\C/C=C\CCCCC [Compound 25, (3R,4R)-1-(2-(Dimethylamino)acetyl)-3,4-bis((9Z,12Z)-octadec-9,12-dienyloxy)pyrrolidine]	126.0
CCCCCCCC/C=C\CCCCCCCCO[C@@H]1CN(CC)C[C@H]1OCCCCCCCC/C=C\CCCCCCCC [Compound 18, (3R,4R)-1-Ethyl-3,4-bis((Z)-octadec-9-enyloxy)pyrrolidine]	146.4
CCCCC/C=C\C/C=C\CCCCCCCC(=O)OCCNCCOC(=O)CCCCCCC/C=C\C/C=C\CCCCC [Compound 74, N,N-bis(2-((9Z,12Z)-Octadec-9,12-dienoyloxy)ethyl)amine]	128.4
CCCCCCCCCCCCCCCCO[C@@H]1CNC[C@H]1OCCCCCCCCCCCCCCCC [Compound 38, (3R,4R)-3,4-bis(Hexadecyloxy)pyrrolidine]	157.2
CCCCC/C=C\C/C=C\CCCCCCCC(=O)O[C@@H]1CN(C(=O)CN(C)C)C[C@H]1OC(=O)CCCCCCC/C=C\C/C=C\CCCCC [Compound 26, (3R,4R)-1-(2-(Dimethylamino)acetyl)pyrrolidine-3,4-diyl di((9Z,12Z)-octadec-9,12-dienoate)]	133.9
CCCCC/C=C\C/C=C\CCCCCCCCCCOC[C@@H]1CN(C)C[C@H]1COCCCCCCCCCC/C=C\C/C=C\CCCCC (relative stereo) [Compound 108, trans-3,4-bis(((11Z,14Z)-Icos-11,14-dienyloxy)methyl)-1-methylpyrrolidine]	144.9
CCCCC/C=C\C/C=C\CCCCCCCCCCO[C@@H]1CN(C)C[C@H]1OCCCCCCCCCC/C=C\C/C=C\CCCCC [Compound 16, (3R,4R)-3,4-bis((11Z,14Z)-Icos-11,14-dienyloxy)-1-methylpyrrolidine]	143.2
